According to patent publication US20100120778A1, “QUINOXALINE-BASED LXR MODULATORS” (Wyeth, priority 2008, published 2010):

Legend:
[1] = target: T1, human LXRα (Homo sapiens, UniProt Q13133); assay: Ligand-binding test procedure for human LXRα (3H T0901317 tracer, flash plates); settings: biotinylated hLXRα, tracer 3H T0901317, +4° C. over night
T1 construct: biotin (biotinylated); made in house; host or cells: E. coli
T1 sequence (Q13133 1-447): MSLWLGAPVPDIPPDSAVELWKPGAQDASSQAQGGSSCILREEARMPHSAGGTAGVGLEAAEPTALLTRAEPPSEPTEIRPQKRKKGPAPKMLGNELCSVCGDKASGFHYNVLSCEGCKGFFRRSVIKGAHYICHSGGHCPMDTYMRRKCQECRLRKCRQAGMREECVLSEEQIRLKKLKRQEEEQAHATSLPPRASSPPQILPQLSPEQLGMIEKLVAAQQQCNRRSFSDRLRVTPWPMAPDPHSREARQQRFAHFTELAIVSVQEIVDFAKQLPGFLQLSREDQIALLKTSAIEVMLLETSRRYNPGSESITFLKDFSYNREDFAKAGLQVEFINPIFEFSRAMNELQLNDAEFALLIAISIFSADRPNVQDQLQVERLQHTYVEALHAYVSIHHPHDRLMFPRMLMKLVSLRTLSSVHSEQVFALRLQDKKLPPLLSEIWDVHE
Method: II. Ligand-Binding Test Procedure for Human LXRα.
Receptor source: E. coli extract from cells expressing biotinylated hLXRα. Extract was made in a similar buffer as above, but with 50 mM TRIS.
Washed streptavidin and coated flash plates with wash buffer. Diluted receptor extract to give Bmax˜4000 cpm and add to the wells. Wrapped the plates in aluminum foil and stored them at +4° C. over night.
(§1) Made a dilution series in DMSO of the test ligands. Made a 5 nM solution of the radioactive tracer in buffer. Mixed 250 μl diluted tracer with 5 μl of the test ligand from each concentration of the dilution series. Washed the receptor-coated flash plates. Added 200 μl per well of the ligand/radiolabel mixture to the receptor-coated flash plates. Wrapped the plates in aluminum foil and incubate at +4° C. over night.
Aspirated wells, and wash the flashed plates. Sealed the plate. Measured the remaining radioactivity in the plate.

[2] = target: T2, human LXRβ (Homo sapiens, UniProt P55055); assay: Ligand-binding test procedure for human LXRβ (3H T0901317 tracer, flash plates); settings: biotinylated hLXRβ, tracer 3H T0901317, +4° C. over night
T2 construct: biotin (biotinylated); made in house; host or cells: E. coli
T2 sequence (P55055 1-460): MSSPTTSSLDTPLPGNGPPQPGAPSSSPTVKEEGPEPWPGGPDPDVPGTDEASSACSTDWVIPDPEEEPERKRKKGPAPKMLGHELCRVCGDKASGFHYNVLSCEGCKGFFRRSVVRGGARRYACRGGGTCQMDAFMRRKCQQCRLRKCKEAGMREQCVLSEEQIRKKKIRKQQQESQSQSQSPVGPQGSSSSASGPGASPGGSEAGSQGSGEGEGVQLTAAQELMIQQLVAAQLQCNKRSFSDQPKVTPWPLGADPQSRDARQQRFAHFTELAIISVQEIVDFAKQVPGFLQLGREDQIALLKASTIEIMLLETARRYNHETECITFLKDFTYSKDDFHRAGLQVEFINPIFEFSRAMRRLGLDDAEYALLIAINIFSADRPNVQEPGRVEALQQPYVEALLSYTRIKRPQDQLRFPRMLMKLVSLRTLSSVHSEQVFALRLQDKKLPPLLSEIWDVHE
Method: I. Ligand-Binding Test Procedure for Human LXRβ.
Receptor source: E. coli extracted from cells expressing biotinylated hLXRβ. Extract was made in a similar buffer as above, but with 50 mM TRIS.
Washed streptavidin and coated flash plates with wash buffer. Diluted receptor extract to give Bmax˜4000 cpm and add to the wells. Wrapped the plates in aluminum foil and stored them at +4° C. overnight.
as §1
Aspirated wells, and washed the flashed plates. Sealed the plate.
Measured the remaining radioactivity in the plate.

| IC50 [1] | IC50 [2] | SMILES |
| --- | --- | --- |
| > 1000 nM | 373 nM | Cc1nc2cccc(C(F)(F)F)c2nc1-c1ccc(-c2cccc(S(C)(=O)=O)c2)cc1 [Example 4, 2-methyl-3-[3′-(methylsulfonyl)biphenyl-4-yl]-5-(trifluoromethyl)quinoxaline] |
| > 1000 nM | 390 nM | Cc1nc2c(Cl)cccc2nc1-c1cccc(Oc2cccc(S(C)(=O)=O)c2)c1 [Example 5, 5-chloro-3-methyl-2-{3-[3-(methylsulfonyl)phenoxy]phenyl}quinoxaline] |
| > 1000 nM | 398 nM | Cc1nc2cccc(C(F)(F)F)c2nc1-c1ccc(-c2cccc(S(C)(=O)=O)c2)cc1F [Example 6, 3-[3-fluoro-3′-(methylsulfonyl)biphenyl-4-yl]-2-methyl-5-(trifluoromethyl)quinoxaline] |
| > 1000 nM | 1550 nM | Cc1nc2cccc(C(F)(F)F)c2nc1-c1ccc(Oc2cccc(S(C)(=O)=O)c2)cc1 [Example 7, 2-methyl-3-{4-[3-(methylsulfonyl)phenoxy]phenyl}-5-(trifluoromethyl)quinoxaline] |
| > 1000 nM | 2210 nM | Cc1nc2cccc(Cl)c2nc1-c1cccc(Oc2cccc(S(C)(=O)=O)c2)c1 [Example 10, 5-chloro-2-methyl-3-{3-[3-(methylsulfonyl)phenoxy]phenyl}quinoxaline] |
| > 1000 nM | 2480 nM | O=S(=O)(CCCO)c1cccc(Oc2cccc(-c3cnc4cccc(C(F)(F)F)c4n3)c2)c1 [Example 11, 3-[(3-{3-[8-(trifluoromethyl)quinoxalin-2-yl]phenoxy}phenyl)sulfonyl]propan-1-ol] |
| > 1000 nM | 6400 nM | Cc1nc2c(C(F)(F)F)cccc2nc1-c1ccc(Oc2cccc(S(C)(=O)=O)c2)cc1 [Example 12, 3-methyl-2-{4-[3-(methylsulfonyl)phenoxy]phenyl}-5-(trifluoromethyl)quinoxaline] |
| 1890 nM | 745 nM | Cc1nc2c(C(F)(F)F)cccc2nc1-c1cc(Oc2ccc(S(C)(=O)=O)cc2)ccc1Cl [Example 42, 2-{2-chloro-5-[4-(methylsulfonyl)phenoxy]phenyl}-3-methyl-5-(trifluoromethyl)quinoxaline] |
| 1620 nM | 1460 nM | Cc1nc2c(C(F)(F)F)cccc2nc1-c1cc(Oc2ccccc2S(C)(=O)=O)ccc1Cl [Example 46, 2-{2-chloro-5-[2-(methylsulfonyl)phenoxy]phenyl}-3-methyl-5-(trifluoromethyl)quinoxaline] |
| > 1000 nM | 159 nM | Cc1nc2c(C(F)(F)F)cccc2nc1-c1cc(Oc2cc(Cl)cc(S(C)(=O)=O)c2)ccc1Cl [Example 60, 2-{2-chloro-5-[3-chloro-5-(methylsulfonyl)phenoxy]phenyl}-3-methyl-5-(trifluoromethyl)-quinoxaline] |
| 366 nM | 29 nM | CCS(=O)(=O)c1cccc(Oc2ccc(Cl)c(-c3nc4c(C(F)(F)F)cccc4nc3C)c2)c1 [Example 61, 3-{2-chloro-5-[3-(ethylsulfonyl)phenoxy]phenyl}-2-methyl-5-(trifluoromethyl)quinoxaline] |
| 876 nM | 38 nM | Cc1nc2cccc(C(F)(F)F)c2nc1-c1cc(Oc2cccc(S(=O)(=O)C(C)C)c2)ccc1Cl [Example 62, 3-(2-chloro-5-{3-[(1-methylethyl)sulfonyl]phenoxy}phenyl)-2-methyl-5-(trifluoromethyl)quinoxaline] |
| 979 nM | 48 nM | Cc1nc2cccc(C(F)(F)F)c2nc1-c1cc(Oc2cccc(S(=O)(=O)CCCO)c2)ccc1Cl [Example 63, 3-[(3-{4-chloro-3-[3-methyl-8-(trifluoromethyl)quinoxalin-2-yl]phenoxy}phenyl)sulfonyl]-propan-1-ol] |
| 638 nM | 89 nM | Cc1nc2cccc(C(F)(F)F)c2nc1-c1cc(Oc2cc(F)cc(S(C)(=O)=O)c2)ccc1Cl [Example 64, 3-{2-chloro-5-[3-fluoro-5-(methylsulfonyl)phenoxy]phenyl}-2-methyl-5-(trifluoromethyl)-quinoxaline] |
| > 1000 nM | 3020 nM | Cc1nc2cccc(C#N)c2nc1-c1ccc(-c2cccc(S(C)(=O)=O)c2)cc1 [Example 72, 2-methyl-3-[3′-(methylsulfonyl)biphenyl-4-yl]quinoxaline-5-carbonitrile] |

Continued, compound first:

| SMILES | IC50 [1] | IC50 [2] |
| --- | --- | --- |
| Cc1nc2cccc(C(F)(F)F)c2nc1-c1cccc(Oc2cccc(S(C)(=O)=O)c2)c1 [Example 3, 2-methyl-3-{3-[3-(methylsulfonyl)phenoxy]phenyl}-5-(trifluoromethyl)quinoxaline] | 1290 nM | 251 nM |
| CS(=O)(=O)c1cccc(Oc2cccc(-c3cnc4c(Cl)cccc4n3)c2)c1 [Example 8, 5-chloro-2-{3-[3-(methylsulfonyl)phenoxy]phenyl}quinoxaline] | > 1000 nM | 1650 nM |
| CS(=O)(=O)c1cccc(Oc2cccc(-c3cnc4cccc(C(F)(F)F)c4n3)c2)c1 [Example 9, 2-{3-[3-(methylsulfonyl)phenoxy]phenyl}-8-(trifluoromethyl)quinoxaline] | > 1000 nM | 1960 nM |
| Cc1nc2c(C(F)(F)F)cccc2nc1-c1cc(Oc2cccc(S(C)(=O)=O)c2)ccc1Cl [Example 36, 2-{2-chloro-5-[3-(methylsulfonyl)phenoxy]phenyl}-3-methyl-5-(trifluoromethyl)quinoxaline] | 292 nM | 19.5 nM |
| Cc1nc2cccc(C(F)(F)F)c2nc1-c1cc(Oc2cccc(S(C)(=O)=O)c2)ccc1Cl [Example 37, 3-{2-chloro-5-[3-(methylsulfonyl)phenoxy]phenyl}-2-methyl-5-(trifluoromethyl)quinoxaline] | 557 nM | 37 nM |
| CCS(=O)(=O)c1cccc(Oc2ccc(Cl)c(-c3nc4cccc(C(F)(F)F)c4nc3C)c2)c1 [Example 56, 2-{2-chloro-5-[3-(ethylsulfonyl)phenoxy]phenyl}-3-methyl-5-(trifluoromethyl)quinoxaline] | 435 nM | 12 nM |
| Cc1nc2c(C(F)(F)F)cccc2nc1-c1cc(Oc2cccc(S(=O)(=O)C(C)C)c2)ccc1Cl [Example 57, 2-(2-chloro-5-{3-[(1-methylethyl)sulfonyl]phenoxy}phenyl)-3-methyl-5-(trifluoromethyl)-quinoxaline] | 947 nM | 78.9 nM |
| Cc1nc2c(C(F)(F)F)cccc2nc1-c1cc(Oc2cccc(S(=O)(=O)CCCO)c2)ccc1Cl [Example 58, 3-[(3-{4-chloro-3-[3-methyl-5-(trifluoromethyl)quinoxalin-2-yl]phenoxy}phenyl)sulfonyl]-propan-1-ol] | 810 nM | 63.5 nM |
| Cc1nc2c(C(F)(F)F)cccc2nc1-c1cc(Oc2cc(F)cc(S(C)(=O)=O)c2)ccc1Cl [Example 59, 2-{2-chloro-5-[3-fluoro-5-(methylsulfonyl)phenoxy]phenyl}-3-methyl-5-(trifluoromethyl)-quinoxaline] | 249 nM | 32 nM |
| Cc1nc2cccc(C(F)(F)F)c2nc1-c1cc(Oc2cc(Cl)cc(S(C)(=O)=O)c2)ccc1Cl [Example 65, 3-{2-chloro-5-[3-chloro-5-(methylsulfonyl)phenoxy]phenyl}-2-methyl-5-(trifluoromethyl)-quinoxaline] | > 1000 nM | 453 nM |
| Cc1nc2ccccc2nc1-c1cc(Oc2cccc(S(C)(=O)=O)c2)ccc1Cl [Example 66, 2-{2-chloro-5-[3-(methylsulfonyl)phenoxy]phenyl}-3-methylquinoxaline] | > 1000 nM | 361 nM |
| Cc1nc2cccc(Cl)c2nc1-c1ccc(-c2cccc(S(C)(=O)=O)c2)cc1 [Example 68, 5-chloro-2-methyl-3-[3′-(methylsulfonyl)biphenyl-4-yl]quinoxaline] | > 1000 nM | 235 nM |
